Experimental data taken from publication PMC11643554, “Synthesis, Cytotoxicity and Antiproliferative Effect of New Pyrrole Hydrazones” (Molecules, 2024).
“And” between values parts separate entries of the source, which are not always exact repeats. Equal values may be shown once. Read-outs that look alike come from different tables or passages of the source.

Columns and labels:
SH-4 cells [1] = assay: Annexin V-FITC/PI flow cytometry assay (apoptosis); format: cell-based, human; conditions: for Early apoptosis (Annexin V+/PI−, Q3) / Late apoptosis (Annexin V+/PI+, Q2) / Necrosis (Annexin V−/PI+, Q1) / Live (viable cells, Annexin V−/PI−, Q4): 1 6 µM, 1A 260 µM, 1B 260 µM, cisplatin 20 µM; for Early apoptosis (Annexin V+/PI−, Q3) / Late apoptosis (Annexin V+/PI+, Q2) / Necrosis (Annexin V−/PI+, Q1) / Live (viable cells, Annexin V−/PI−, Q4) / population fraction of total apoptotic cells: 1C 40 µM, 1D 8 µM
Protocol: Apoptosis was discriminated with the annexin V-FITC/PI test according to the manufacturer’s protocol (SIGMA-ALDRICH APOAF). […] After completion of each drug incubation, cell media that may contain cells in suspension was centrifuged at 350× g for 5 min. Subsequently, the cell monolayers were washed once with PBS, and cells were detached with trypsin and then collected together with a centrifuged pellet. The cells were washed twice with cold PBS and then resuspended in a Binding Buffer (0.1 M Hepes/NaOH (pH 7.4), 1.4 M NaCl, 25 mM CaCl2) at a concentration of 1 × 10^5 cells/mL. The cells were incubated with 5 µL of FITC Annexin V and 10 µL PI for 20 min at RT (25 °C) in the dark. The analysis was performed with BD FACS DIVA software version 7.0 (BD Biosciences, Franklin Lakes, NJ, USA). Data were analyzed as follows: lower left quadrant, viable cells (Annexin V−/PI−); lower right quadrant, early apoptotic cells (Annexin V+/PI−); upper right quadrant, late apoptotic cells (annexin V+/PI+); upper left quadrant, necrotic cells (annexin V−/PI+). Three independent experiments were performed, with two replicates per experiment.

[2] = system: human keratinocytes HaCaT; assay: Antiproliferative activity, MTT dye reduction assay, HaCaT; format: cell-based; conditions: non-tumor keratinocytes HaCaT, 72 h, n = 6, read-out: Mean IC50 ± SD, HaCaT
Protocol: (§1) The antiproliferative activity of the studied substances was determined by MTT dye reduction assay. The assay is based on the metabolism of MTT by reductases in the mitochondria to formazan, the concentration of which can be determined photometrically. The measured absorbance is an indicator of cell viability and metabolic activity. Cells were seeded in 96-well cell culture plates (1 × 10^3 cells/well). Followed by incubation at 37 °C, 5% CO2 for 24 h. Followed by incubation for 72 h of the cells with the studied substances in twice increasing concentrations. After washing with PBS, 100 µL/well of MTT solution (0.5 mg/mL) was added. After 3 h of incubation, the 96-well plates were washed with PBS, and 100 µL/well of lysing solution (DMSO/Ethanol = 1/1) was added. Optical density was measured at a wavelength of 540 nm. The antiproliferative activity expressed in % of the negative control was calculated according to the following formula:Antiproliferative activity (%) = (1 − (OD540 (sample)/OD540 (negative control))) × 100
(§2) The IC50 values (a concentration that inhibited 50% cell proliferation) were calculated using non-linear regression analysis (GraphPad Prizm8 Software). The statistical analysis included the application of one-way ANOVA followed by Bonferroni’s post hoc test. p < 0.05 was accepted as the lowest level of statistical significance. All results are presented as mean ± SD.

SH-4 cells [3] = assay: Cell cycle analysis, PI stain, flow cytometry; format: cell-based, human; conditions: SH-4, 48 h; for G2 phase, percentage of cells / S phase, percentage of cells / G0/G1 phase, percentage of cells: 1 6 µM, 1A 260 µM, 1B 260 µM, 1C 40 µM, 1D 8 µM, cisplatin 20 µM; for G2 phase, percentage of cells: control 12.1; for S phase, percentage of cells: control 21.6; for G0/G1 phase, percentage of cells: control 63.6; for effect on cell cycle distribution (in words): at IC50 doses
Protocol: After incubation, cells were washed twice with ice-cold PBS and fixed with ice-cold 70% ethanol at −20 °C overnight. The cells were treated with 20 µg/mL RNase A at 37 °C for 60 min, then washed with PBS and finally stained with 20 µg/mL PI in the dark for 30 min. The cellular DNA content for the cell cycle distribution analysis was performed with the system software (BD FACS DIVA software (BD Biosciences, Franklin Lakes, NJ, USA)), plotting at least 10,000 events per sample. Three independent experiments were performed, with two replicates per experiment.

human melanoma SH-4 = assay: Antiproliferative activity, MTT dye reduction assay, SH-4; format: cell-based; conditions: for IC50: melanoma SH-4, MTT, 72 h, n = 6, read-out: Mean IC50 ± SD, SH-4; for SI (Selective index): SI = IC50 (non-tumor cell line HaCaT)/IC50 (tumor cell line SH-4)
Protocol: as §1, §2

[4] = system: mouse embryonic fibroblasts BALB 3T3 clone A31; assay: BALB 3T3 Neutral Red Uptake safety test (cytotoxicity/phototoxicity); format: cell-based; conditions: PIF = CC50 −Irr/CC50 +Irr; PIF < 2 not phototoxic, 2 < PIF < 5 probable phototoxicity, PIF > 5 phototoxic
Protocol: (§3) The Neutral Red Uptake in vitro assay is a colorimetric method for assessing cell viability. This method is based on the ability of living cells to incorporate Neutral Red dye into lysosomes. Mouse embryonic fibroblasts were seeded at 1 × 10^4 cells/100 μL culture medium/well in 96-well cell culture microplates. The cells were incubated for 24 h to allow cell adhesion. The cells were then treated with a solution of the test substances in double-increasing concentrations (from 15 to 4000 μM). The phototoxicity test was performed in parallel on a second 96-well plate, which was irradiated with a solar simulator (LED lamp—Helios-iO (SERIC Ltd., Tokyo, Japan) for 10 min (irradiation dose 0.86 J). After 24 h of incubation, a culture medium containing Neutral Red was added. After 3 h of incubation, the wells were washed with PBS, and a Desorb solution (50% Ethanol, 1% Acetic acid, 49% dH2O) was added. The optical density (OD) was measured by a microplate reader at λ = 540 nm. The percentage of cytotoxicity was calculated according to the following formula:Cytotoxicity (%) = (1 − (OD540 (sample)/OD540 (negative control))) × 100 Phototoxicity is expressed by Photoirritation factor (PIF), PIF = CC50 − Irr/CC50 +Irr* * Irradiation

[5] = as above; format: cell-based, mouse; conditions: mouse, BALB 3T3 clone A31 embryonic fibroblasts, BALB 3T3, NRU, 24 h incubation, n = 6
Protocol: as §3

[6] = irradiated with solar simulator 10 min (0.86 J), read-out: Mean CC50 ± SD, +Irr
[7] = without irradiation, read-out: Mean CC50 ± SD, −Irr

Compound	Early apoptosis (Annexin V+/PI−, Q3) (SH-4 cells [1]; SH-4, 48 h)	Late apoptosis (Annexin V+/PI+, Q2) (SH-4 cells [1]; SH-4, 48 h)	Necrosis (Annexin V−/PI+, Q1) (SH-4 cells [1]; SH-4, 48 h)	G2 phase, percentage of cells (SH-4 cells [3])	S phase, percentage of cells (SH-4 cells [3])	G0/G1 phase, percentage of cells (SH-4 cells [3])	PIF (Photo Irritation Factor) [4]	CC50 at 24 h [5, 6]	CC50 at 24 h [5, 7]	Live (viable cells, Annexin V−/PI−, Q4) (SH-4 cells [1]; SH-4, 48 h)	IC50 ([2]; Homo sapiens)	effect on cell cycle distribution (in words) (SH-4 cells [3])	melting point	IC50 (human melanoma SH-4; Homo sapiens)	SI (Selective index) (human melanoma SH-4)	further results
N.N.[Cl][Pt][Cl] [Cisplatin, reference compound]	36.4%	2.59%	0.34%	17.7%	61.3%	17.8%										IC50 [2]: 8.64 ± 0.42 µM; IC50 (human melanoma SH-4): 22.8 ± 1.47 µM
CN(C)CCCN1c2ccccc2Sc2ccc(Cl)cc21 [Chlorpromazine, reference compound]							7.21	9.13 ± 0.72 µM	65.8 ± 2.64 µM							
CCOC(=O)c1cc(-c2ccc(Cl)cc2)n(C(Cc2ccccc2)C(=O)N/N=C/c2[nH]c(C)c(C(=O)OCC)c2C)c1C (stereo not drawn) [Compound 1B, Ethyl(E)-5-(4-chlorophenyl)-1-(1-(2-((4-(ethoxycarbonyl)-3,5-dimethyl-1H-pyrrol-2-yl)methylene)hydrazineyl)-1-oxo-3-phenylpropan-2-yl)-2-methyl-1H-pyrrole-3-carboxylate]	48.9%	6.1%	0.46%	13.6%	34%	50.2%	0.96	2270 ± 55.4 µM	2180 ± 154 µM	44.6%	544 ± 26.8 µM	slight increase in the S phase population	129 to 132 °C	258 ± 16.1 µM	2.11	apoptotic potential higher than α-aldehyde derivative 1A (SH-4 cells [1]; SH-4, 48 h, 260 µM): 14%
CCOC(=O)c1cc(-c2ccc(Cl)cc2)n(C(Cc2ccccc2)C(=O)N/N=C/c2c(C)[nH]c(C(=O)OCC)c2C)c1C (stereo not drawn) [Compound 1C, Ethyl(E)-4-((2-(2-(5-(4-chlorophenyl)-3-(ethoxycarbonyl)-2-methyl-1H-pyrrol-1-yl)-3-phenylpropanoyl)hydrazineylidene)methyl)-3,5-dimethyl-1H-pyrrole-2-carboxylate]	39%	7.13%	0.43%	24.5%	38.5% and 38%	35%	0.95	1750 ± 31.7 µM	1670 ± 41.5 µM	53.4%	171 ± 4.09 µM	induction of S-phase arrest	> 230 °C	44.6 ± 3.51 µM	3.83	population fraction of total apoptotic cells (SH-4 cells [1]; SH-4, 48 h): around 46%
CCOC(=O)c1cc(-c2ccc(Cl)cc2)n(C(Cc2ccccc2)C(=O)NN)c1C (stereo not drawn) [Compound 1, Ethyl-5-(4-chlorophenyl)-1-(1-hydrazinyl-1-oxo-3-phenylpropan-2-yl)-2-methyl-1H-pyrrole-3-carboxylate]	42.7%	8.74%	0.19%	13.4%	28.5%	57%	0.94	55.8 ± 4.49 µM	52.3 ± 2.63 µM		9.64 ± 0.58 µM		170 to 173 °C	6.86 ± 0.6 µM	1.41	viability at 6 µM (SH-4 cells [1]; Homo sapiens, SH-4, 48 h, read-out: Live (viable cells, Annexin V−/PI−, Q4)): 48.3%; increase of total apoptotic cell populations compared to the control group (SH-4 cells [1]; SH-4, 48 h incubation, 6 µM): 50%
CCOC(=O)c1cc(-c2ccc(Cl)cc2)n(C(Cc2ccccc2)C(=O)N/N=C/c2[nH]c(C(=O)OCC)c(C)c2C(=O)OCC)c1C (stereo not drawn) [Compound 1A, Diethyl(E)-5-((2-(2-(5-(4-chlorophenyl)-3-(ethoxycarbonyl)-2-methyl-1H-pyrrol-1-yl)-3-phenylpropanoyl)hydrazineylidene)methyl)-3-methyl-1H-pyrrole-2,4-dicarboxylate]	36.5%	4.78%	0.50%	14.8%	24.5%	59.8%	1.11	2840 ± 124 µM	3140 ± 167 µM	58.2%	503 ± 31.1 µM	no significant changes in the cell cycle distribution	109 to 112 °C	270 ± 13.5 µM	1.87	apoptotic activity (in words) (SH-4 cells [1]; SH-4, 48 h, 260 µM, versus Cisplatin 20 µM): comparable apoptotic activity with positive control
CCOC(=O)c1cc(-c2ccc(Cl)cc2)n(C(Cc2ccccc2)C(=O)N/N=C/c2c(C)[nH]c(C)c2C(=O)OCC)c1C (stereo not drawn) [Compound 1D, Ethyl(E)-5-(4-chlorophenyl)-1-(1-(2-((4-(ethoxycarbonyl)-2,5-dimethyl-1H-pyrrol-3-yl)methylene)hydrazineyl)-1-oxo-3-phenylpropan-2-yl)-2-methyl-1H-pyrrole-3-carboxylate]	32.5%	6.51%	0.78%	23.2%	46.4% and 46%	28.3%	1.13	3370 ± 130 µM	3800 ± 185 µM	60.2%	11 ± 0.42 µM	induction of S-phase arrest	> 230 °C	8.72 ± 0.6 µM	1.26	population fraction of total apoptotic cells (SH-4 cells [1]; SH-4, 48 h): 39%
